Results on 1 molecule are retold here after patent US6042841A, “Cosmetic method of treating skin” (Unilever Home & Personal Care USA Division of Conopco, Inc., priority 1998, dated 2000).

Type in all cases: cell-based
The test system of data set [1] is decorin. Briefly: Dot blot assay for decorin synthesis in human dermal fibroblasts. Here is the method:
(§1) Primary human foreskin fibroblasts at passage 2 (P2) were seeded into 12-well plates at 10000 cells/cm^2 and maintained for 24 hours in an atmosphere of 5% carbon dioxide and 4% oxygen in Dulbeccos Modified Eagles Medium (DMEM) supplemented with 10% foetal calf serum. After this time the cells were washed with serum free DMEM and then incubated in fresh serum free DMEM for a further 60 hours. The fibroblast monolayers were then washed again with serum free DMEM. Test reagents and vehicle controls were added to the cells in triplicate in a final volume of 0.4 ml/well fresh serum free DMEM and incubated for a further 24 hours. This fibroblast conditioned medium was either analysed immediately or snap frozen in liquid nitrogen and stored at -70° C. for future analysis. The cells were then counted and data from the dot-blot analysis subsequently standardised to cell number.
Samples of conditioned medium from dermal fibroblasts treated with vehicle (as a control) or test reagents were supplemented with 20 mM dithiothreitol (1:10 dilution of 200 mM stock solution) and 0.1% sodium dodecylsulphate (1:100 dilution of 10% stock solution), mixed well and then incubated at 75° C. for 2 minutes. A standard for the assay was generated by serial dilution of neat fibroblast conditioned medium from fibroblasts seeded at 10000 cells/cm^2 in a 175 cm^2 flask and maintained in serum free DMEM as described above. Assay samples were subsequently applied in triplicate to a prewetted sheet of Immobilon-P transfer membrane using the 96-well Bio-Dot Apparatus from Bio-Rad as described in the manufacturers guidelines. Approximately 200 μl of medium was applied per well. […] Dot intensity was assessed by computer-assisted image analysis using the quantification tools in ImageQuant™, standardised to cell number and the effects of various test reagents on decorin and procollagen-I synthesis were determined relative to a vehicle treated control value of 100 arbitrary units.

Data set [2] has as its system keratinocytes. Briefly: Keratinocyte viability by neutral red up-take in PGE2 assay. To be noted: at the concentrations tested. As to the method:
After incubating for 24 hours the medium was removed and the viability determined by the Neutral Red method.
The cells were then tested for viability by the neutral red up-take method described in example 2 above.

Data set [3] deals with procollagen-I. Briefly: Dot blot assay for procollagen-I synthesis in human dermal fibroblasts. Here is the method: as §1
Samples of conditioned medium from dermal fibroblasts treated with vehicle (as a control) or test reagents were supplemented with 20 mM dithiothreitol (1:10 dilution of 200 mM stock solution) and 0.1% sodium dodecylsulphate (1:100 dilution of 10% stock solution), mixed well and then incubated at 75° C. for 2 minutes. […]
In order to normalise the results the effects of the test substance was determined relative to a vehicle treated control value of 100 arbitrary units. […]

As for `CCCCCCCCCCC/C=C\CCCCC(=O)O` [Petroselinic Acid, petroselinic acid], the “decorin synthesis (in words)” value in data set [1] (compared to the control) is on record as “significantly upregulates”. In data set [1] (petroselinic acid 10 μM vs retinoic acid 1 μm (so in the source)), the “magnitude of upregulation of decorin synthesis vs retinoic acid (in words)” value is “exceeds that of the bench-mark anti-aging dermal repair active, retinoic acid”. The “Cell viability of keratinocytes (in words)” value in data set [2] was “not found to be adversely effected”. Further, in data set [3] (Homo sapiens, Fibroblast, 10 μM, 24 hours, n = 3, read-out: Procollagen-I synthesis relative to vehicle treated control value of 100), the activity at 10 µM was 118 ± 8.6%. The “procollagen-I synthesis (in words)” value in data set [3] (compared to the control) is reported as “significantly upregulates”.
